Source: US9796704B2, “Substituted quinazolines as receptor-type kinase inhibitors” (Symphony Evolution, Inc., priority 2002, dated 2017)

Legend:
[1] = target: EGFR (Homo sapiens (Human), UniProt P00533); assay: EGFR kinase inhibition, luciferase-coupled chemiluminescent assay (LCCA); details: read-out: EGFR IC50
[2] = target: EphB4 (Homo sapiens (Human), UniProt P54760); assay: EphB4 kinase inhibition, 33P phosphoryl transfer assay (radiometric); assay type: biochemical
Procedure: Phosphorylated substrate products are quantified by scintillation spectrometry.
Kinase activity and compound inhibition are investigated using one or more of the three assay formats described below. The ATP concentrations are selected near its Michaelis-Menten constant (KM) for each individual kinase. Dose-response experiments are performed at ten different inhibitor concentrations in a 384-well plate format. […] These parameters are obtained by nonlinear regression algorithm built into ActivityBase software (available from ID Business Solutions Ltd., of Guildford, Surrey, UK). ^33P Phosphoryl Transfer Assay (Radiometric)
Greiner 384-well white clear bottom high binding plates (available from Greiner Bio-One, Inc., of Longwood, Fla.) are coated with 2 μg/well of protein or peptide substrate in a 50 μL volume overnight at ambient temperature. […] The coating solution is aspirated and the plates are washed once with 50 μL of assay buffer and padded dry. Subsequently compounds and enzymes are mixed with γ ^33P-ATP (3.3 μCi/nmol) in a total volume of 20 uL in suitable assay buffers (see Table 2). For example the final EphB4 reaction solution contains 20 mM TrisHCl, pH 7.5, 10 mM MgCl2, 0.01% Triton X-100, 0.1 mM NaVO3, 5 nM EphB4 enzyme and 5 μM ATP. […] The plates are subsequently washed 6-12 times with PBST or TBS buffer.

Chain of EphB4 (P54760 605-890): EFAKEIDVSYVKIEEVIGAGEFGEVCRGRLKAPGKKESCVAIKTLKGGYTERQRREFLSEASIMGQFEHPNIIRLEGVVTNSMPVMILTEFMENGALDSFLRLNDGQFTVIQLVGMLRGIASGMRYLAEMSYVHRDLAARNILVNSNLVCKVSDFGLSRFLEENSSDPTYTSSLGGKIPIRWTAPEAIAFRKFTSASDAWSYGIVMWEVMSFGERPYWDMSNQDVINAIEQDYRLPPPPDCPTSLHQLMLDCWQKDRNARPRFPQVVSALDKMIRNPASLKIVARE
Chain of EGFR (P00533 672-1210): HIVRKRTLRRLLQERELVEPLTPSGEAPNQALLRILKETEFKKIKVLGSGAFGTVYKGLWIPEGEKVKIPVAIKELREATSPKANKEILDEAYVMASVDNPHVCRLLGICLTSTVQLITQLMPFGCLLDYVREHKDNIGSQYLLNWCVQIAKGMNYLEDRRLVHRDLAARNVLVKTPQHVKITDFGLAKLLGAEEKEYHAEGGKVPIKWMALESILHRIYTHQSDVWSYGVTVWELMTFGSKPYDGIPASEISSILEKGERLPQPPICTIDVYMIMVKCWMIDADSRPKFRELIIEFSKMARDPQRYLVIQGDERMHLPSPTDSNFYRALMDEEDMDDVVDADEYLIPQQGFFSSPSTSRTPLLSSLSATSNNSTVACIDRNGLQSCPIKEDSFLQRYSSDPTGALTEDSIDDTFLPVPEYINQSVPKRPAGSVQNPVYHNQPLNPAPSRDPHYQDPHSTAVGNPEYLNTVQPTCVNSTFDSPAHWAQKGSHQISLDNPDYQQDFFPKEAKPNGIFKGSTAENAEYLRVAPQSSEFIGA

| Structure (SMILES) | IC50 [1] [nM] | IC50 [2] [nM] |
| --- | --- | --- |
| COc1cc2c(Nc3ccc(Br)c(Cl)c3)ncnc2cc1O[C@H]1CO[C@@H]2C3OC(C)(C)O[C@H]3O[C@H]12 (stereo partly drawn) [Example 80, 3,6-anhydro-5-O-[4-[(4-bromo-3-chlorophenyl)amino]-6-(methyloxy)quinazolin-7-yl]-1,2-O-(1-methylethylidene)-beta-L-xylo-hexofuranose] | < 50 | < 50 |
| COc1cc2c(Nc3ccc(F)c(F)c3F)ncnc2cc1O[C@@H]1CO[C@@H]2[C@H]1OC[C@H]2F [Example 84, 1,4:3,6-dianhydro-2-deoxy-2-fluoro-5-O-{6-(methyloxy)-4-[(2,3,4-trifluorophenyl)amino]quinazolin-7-yl}-D-iditol] | < 50 | < 50 |
| COc1cc2c(Nc3cccc(F)c3F)ncnc2cc1O[C@@H]1CO[C@@H]2[C@H]1OC[C@H]2F [Example 92, 1,4:3,6-dianhydro-2-deoxy-5-O-[4-[(2,3-difluorophenyl)amino]-6-(methyloxy)quinazolin-7-yl]-2-fluoro-D-iditol] | < 50 | < 50 |
| COc1cc2c(Nc3ccc(Br)c(Cl)c3Cl)ncnc2cc1O[C@@H]1CO[C@@H]2[C@H]1OC[C@H]2F [Example 103, 1,4:3,6-dianhydro-5-O-[4-[(4-bromo-2,3-dichlorophenyl)amino]-6-(methyloxy)quinazolin-7-yl]-2-deoxy-2-fluoro-D-iditol] | < 50 | < 50 |
| COc1cc2c(Nc3cc(Cl)c(Cl)cc3F)ncnc2cc1O[C@@H]1CO[C@@H]2[C@H]1OC[C@H]2F [Example 105, 1,4:3,6-dianhydro-2-deoxy-5-O-[4-[(4,5-dichloro-2-fluorophenyl)amino]-6-(methyloxy)quinazolin-7-yl]-2-fluoro-D-iditol] | < 50 | < 50 |
| COc1cc2c(Nc3cccc(Cl)c3)ncnc2cc1O[C@@H]1CO[C@@H]2[C@H]1OC[C@H]2F [Example 114, 1,4:3,6-dianhydro-5-O-[4-[(3-chlorophenyl)amino]-6-(methyloxy)quinazolin-7-yl]-2-deoxy-2-fluoro-D-iditol] | < 50 | < 50 |
| COc1cc2c(Nc3ccc(Cl)cc3Cl)ncnc2cc1O[C@@H]1CO[C@@H]2[C@H]1OC[C@H]2F [Example 117, 1,4:3,6-dianhydro-2-deoxy-5-O-[4-[(2,4-dichlorophenyl)amino]-6-(methyloxy)quinazolin-7-yl]-2-fluoro-D-iditol] | < 50 | < 50 |
| COc1cc2c(Nc3cccc(Br)c3)ncnc2cc1O[C@@H]1CO[C@@H]2[C@H]1OC[C@H]2F [Example 129, 1,4:3,6-dianhydro-5-O-[4-[(3-bromophenyl)amino]-6-(methyloxy)quinazolin-7-yl]-2-deoxy-2-fluoro-D-iditol] | < 50 | < 50 |
| COc1cc(OC)c(Nc2ncnc3cc(O[C@@H]4CO[C@@H]5[C@H]4OC[C@H]5F)c(OC)cc23)cc1Cl [Example 135, 1,4:3,6-dianhydro-5-O-[4-{[5-chloro-2,4-bis(methyloxy)phenyl]amino}-6-(methyloxy)quinazolin-7-yl]-2-deoxy-2-fluoro-D-iditol] | < 50 | < 50 |
| COc1cc2c(Nc3ccc(F)c(Cl)c3F)ncnc2cc1O[C@@H]1CO[C@@H]2[C@H]1OC[C@H]2F [Example 137, 1,4:3,6-dianhydro-5-O-[4-[(3-chloro-2,4-difluorophenyl)amino]-6-(methyloxy)quinazolin-7-yl]-2-deoxy-2-fluoro-D-iditol] | < 50 | < 50 |
| COc1cc2c(Nc3ccc(Cl)c(Cl)c3)ncnc2cc1OCc1nc(CN(C)C)no1 [Example 139, N-(3,4-dichlorophenyl)-7-[({3-[(dimethylamino)methyl]-1,2,4-oxadiazol-5-yl}methyl)oxy]-6-(methyloxy)quinazolin-4-amine] | < 50 | 50 to 1000 |
| COc1cc2c(Nc3ccc(Cl)c(Cl)c3)ncnc2cc1OCc1noc(C2CCNCC2)n1 [Example 141, N-(3,4-dichlorophenyl)-6-(methyloxy)-7-{[(5-piperidin-4-yl-1,2,4-oxadiazol-3-yl)methyl]oxy}quinazolin-4-amine] | < 50 | 50 to 1000 |
| COc1cc2c(Nc3ccc(Cl)c(Cl)c3)ncnc2cc1OCc1noc(C2CCN(C)CC2)n1 [Example 142, N-(3,4-dichlorophenyl)-6-(methyloxy)-7-({[5-(1-methylpiperidin-4-yl)-1,2,4-oxadiazol-3-yl]methyl}oxy)quinazolin-4-amine] | < 50 | 50 to 1000 |
| COc1cc2c(Nc3ccc(Cl)c(Cl)c3)ncnc2cc1OCc1nc(CN2CCOCC2)no1 [Example 143, N-(3,4-dichlorophenyl)-6-(methyloxy)-7-({[3-(morpholin-4-ylmethyl)-1,2,4-oxadiazol-5-yl]methyl}oxy)quinazolin-4-amine] | < 50 | 50 to 1000 |
| COc1cc2c(Nc3ccc(Cl)c(Cl)c3)ncnc2cc1OCc1nc(-c2ccc(Cl)cc2)no1 [Example 168, 7-({[3-(4-chlorophenyl)-1,2,4-oxadiazol-5-yl]methyl}oxy)-N-(3,4-dichlorophenyl)-6-(methyloxy)quinazolin-4-amine] | < 50 |  |
| COc1cc2c(Nc3ccc(Cl)c(Cl)c3)ncnc2cc1OCc1c(OC)ccc2cc(Br)ccc12 [Example 169, 7-({[6-bromo-2-(methyloxy)naphthalen-1-yl]methyl}oxy)-N-(3,4-dichlorophenyl)-6-(methyloxy)quinazolin-4-amine] | < 50 |  |
| COc1cc2c(Nc3ccc(Cl)c(Cl)c3)ncnc2cc1OCc1ccc(Cl)nc1 [Example 171, 7-{[(6-chloropyridin-3-yl)methyl]oxy}-N-(3,4-dichlorophenyl)-6-(methyloxy)quinazolin-4-amine] | < 50 |  |
| COc1cc2c(Nc3ccc(Cl)c(Cl)c3)ncnc2cc1OCc1csc(C)n1 [Example 173, N-(3,4-dichlorophenyl)-6-(methyloxy)-7-{[(2-methyl-1,3-thiazol-4-yl)methyl]oxy}quinazolin-4-amine] | < 50 |  |
| COc1cc2c(Nc3ccc(Cl)c(Cl)c3)ncnc2cc1OCc1cc(Cl)cc2c1OCOC2 [Example 174, 7-{[(6-chloro-4H-1,3-benzodioxin-8-yl)methyl]oxy}-N-(3,4-dichlorophenyl)-6-(methyloxy)quinazolin-4-amine] | < 50 |  |
| COc1cc2c(Nc3ccc(Cl)c(Cl)c3)ncnc2cc1OCc1cc(-c2ccccc2)no1 [Example 177, N-(3,4-dichlorophenyl)-6-(methyloxy)-7-{[(3-phenylisoxazol-5-yl)methyl]oxy}quinazolin-4-amine] | < 50 |  |
| COc1cc2c(Nc3ccc(Cl)c(Cl)c3)ncnc2cc1OCc1c(C)cc(C)cc1C [Example 178, N-(3,4-dichlorophenyl)-6-(methyloxy)-7-{[(2,4,6-trimethylphenyl)methyl]oxy}quinazolin-4-amine] | < 50 |  |
| COc1ccc(-c2cc(COc3cc4ncnc(Nc5ccc(Cl)c(Cl)c5)c4cc3OC)on2)cc1 [Example 180, N-(3,4-dichlorophenyl)-6-(methyloxy)-7-[({3-[4-(methyloxy)phenyl]isoxazol-5-yl}methyl)oxy]quinazolin-4-amine] | < 50 |  |
| COc1cc2c(Nc3ccc(Cl)c(Cl)c3)ncnc2cc1OCc1c(C(F)(F)F)nn(C)c1Oc1ccc(Cl)cc1Cl [Example 181, N-(3,4-dichlorophenyl)-7-({[5-[(2,4-dichlorophenyl)oxy]-1-methyl-3-(trifluoromethyl)-1H-pyrazol-4-yl]methyl}oxy)-6-(methyloxy)quinazolin-4-amine] | < 50 |  |
| COc1cc2c(Nc3ccc(Cl)c(Cl)c3)ncnc2cc1OCc1noc(COCc2ccccc2)n1 [Example 211, N-(3,4-dichlorophenyl)-6-(methyloxy)-7-{[(5-{[(phenylmethyl)oxy]methyl}-1,2,4-oxadiazol-3-yl)methyl]oxy}quinazolin-4-amine] | < 50 |  |
| CCN1CCC[C@H]1c1noc(COc2cc3ncnc(Nc4ccc(Cl)c(Cl)c4)c3cc2OC)n1 [Example 255, N-(3,4-dichlorophenyl)-7-[({3-[(2S)-1-ethylpyrrolidin-2-yl]-1,2,4-oxadiazol-5-yl}methyl)oxy]-6-(methyloxy)quinazolin-4-amine] | < 50 |  |
| CCN1CCC[C@H]1c1nc(COc2cc3ncnc(Nc4ccc(Cl)c(Cl)c4)c3cc2OC)cs1 [Example 256, N-(3,4-dichlorophenyl)-7-[({2-[(2S)-1-ethylpyrrolidin-2-yl]-1,3-thiazol-4-yl}methyl)oxy]-6-(methyloxy)quinazolin-4-amine] | < 50 |  |
| C=CCCCCN1CCOC(COc2cc3ncnc(Nc4ccc(Cl)c(Cl)c4)c3cc2OC)C1 (stereo not drawn) [Example 274, N-(3,4-dichlorophenyl)-7-{[(4-hex-5-en-1-ylmorpholin-2-yl)methyl]oxy}-6-(methyloxy)quinazolin-4-amine] | < 50 |  |
| COC(=O)CCN1CCOC(COc2cc3ncnc(Nc4ccc(Cl)c(Cl)c4)c3cc2OC)C1 (stereo not drawn) [Example 276, methyl 3-[2-({[4-[(3,4-dichlorophenyl)amino]-6-(methyloxy)quinazolin-7-yl]oxy}methyl)morpholin-4-yl]propanoate] | < 50 |  |
